Laboratory results: PubChem BioAssay AID192 (DTP/NCI, 2004)
“And” between values parts separate entries of the source, which are not always exact repeats. Equal entries are not always repeated. Toxic doses and inconclusive results are not listed.

Test system: BDF1 mice, B16 melanoma ip, median survival T/C
Experiment: NCI In Vivo Anticancer Drug Screen. Data for tumor model B16 Melanoma (intraperitoneal) in B6D2F1 (BDF1) mice
Conditions: endpoint: median survival time, higher = longer survival
Summary of the method: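 Antitumor activity is assessed in mice bearing a transplanted tumor, with survival or tumor size compared against vehicle-dosed controls and expressed as T/C.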

[1] = dose: 100.0 mg/kg/injection, schedule: Q01DX009 (ip), vehicle: saline with Tween-80

For `O=[N+]([O-])c1cc(Cl)c(Cl)cc1NS(=O)(=O)c1ccccc1`, the T/C (dose: 150.0 mg/kg/injection, schedule: Q01DX009 (ip), vehicle: saline with Tween-80) was 100 % of control and the T/C (dose: 300.0 mg/kg/injection, schedule: Q01DX009 (ip), vehicle: saline with Tween-80) was 90 % of control.
With `CCC(=O)/C=C/C1C(C)=CCCC1(C)C` (stereo not drawn) the T/C (dose: 50.0 mg/kg/injection, schedule: Q01DX009 (ip), vehicle: saline with Tween-80) was 104 % of control and the T/C [1] was 102 % of control.
`C/C=C(\C)C(=O)OC1C(C)C2(O)C(C=C(CO)CC3(O)C(=O)C(C)=CC32)C2C(C)(C)C12OC(=O)CCCCCCCCC` (stereo not drawn) was tested, and the T/C (dose: 0.13 mg/kg/injection, schedule: Q01DX009 (ip), vehicle: saline + alcohol) was 102 % of control and 104 % of control, the T/C (dose: 0.25 mg/kg/injection, schedule: Q01DX009 (ip), vehicle: saline + alcohol) was 92 % of control and 94 % of control and the T/C (dose: 0.5 mg/kg/injection, schedule: Q01DX009 (ip), vehicle: saline + alcohol) was 92 % of control.
`C=C1C(=O)O[C@H]2C1[C@H](OC(=O)/C(C)=C\COC(C)=O)C[C@]1(CO1)[C@@H]1[C@H](O)[C@H]3O[C@@]3(C)[C@@H]12` (stereo partly drawn) was tested, and the T/C (dose: 3.12 mg/kg/injection, schedule: Q01DX009 (ip), vehicle: other) was 112 % of control, the T/C (dose: 6.25 mg/kg/injection, schedule: Q01DX009 (ip), vehicle: other) was 104 % of control and the T/C (dose: 12.5 mg/kg/injection, schedule: Q01DX009 (ip), vehicle: other) was 107 % of control. For the same compound, the T/C (dose: 25.0 mg/kg/injection, schedule: Q01DX009 (ip), vehicle: other) was 106 % of control and the T/C (dose: 50.0 mg/kg/injection, schedule: Q01DX009 (ip), vehicle: other) was 109 % of control.
`Nc1nc(=S)c2[nH]cnc2[nH]1` was tested, and the T/C (dose: 0.25 mg/kg/injection, schedule: Q01DX009 (ip), vehicle: saline sonified) was 100 % of control, the T/C (dose: 0.25 mg/kg/injection, schedule: Q01DX009 (ip), vehicle: suspension in saline) was 109 % of control and the T/C (dose: 0.5 mg/kg/injection, schedule: Q01DX009 (ip), vehicle: saline sonified) was 112 % of control and 115 % of control. For the same compound, the T/C (dose: 0.5 mg/kg/injection, schedule: Q01DX009 (ip), vehicle: suspension in saline) was 120 % of control, the T/C (dose: 1.0 mg/kg/injection, schedule: Q01DX009 (ip), vehicle: saline sonified) was 100 % of control and the T/C (dose: 1.0 mg/kg/injection, schedule: Q01DX009 (ip), vehicle: suspension in saline) was 105 % of control. The T/C (dose: 2.0 mg/kg/injection, schedule: Q01DX009 (ip), vehicle: saline sonified) was 95 % of control and 105 % of control, the T/C (dose: 2.0 mg/kg/injection, schedule: Q01DX009 (ip), vehicle: saline with Tween-80) was 111 % of control and the T/C (dose: 2.0 mg/kg/injection, schedule: Q01DX009 (ip), vehicle: suspension in saline) was 107 % of control.
With `O=C(Nc1ccccc1Cl)c1ccc([N+](=O)[O-])cc1` the T/C [1] was 100 % of control, the T/C (dose: 200.0 mg/kg/injection, schedule: Q01DX009 (ip), vehicle: saline with Tween-80) was 105 % of control and the T/C (dose: 400.0 mg/kg/injection, schedule: Q01DX009 (ip), vehicle: saline with Tween-80) was 97 % of control.
With `O=[N+]([O-])c1ccc([S][Pb]([c]2ccccc2)([c]2ccccc2)[c]2ccccc2)cc1` the T/C (dose: 6.25 mg/kg/injection, schedule: Q04DX003 (ip), vehicle: Klucel (hydroxypropylcellulose) (HPC)) was 94 % of control, the T/C (dose: 12.5 mg/kg/injection, schedule: Q04DX003 (ip), vehicle: Klucel (hydroxypropylcellulose) (HPC)) was 97 % of control and the T/C (dose: 25.0 mg/kg/injection, schedule: Q04DX003 (ip), vehicle: Klucel (hydroxypropylcellulose) (HPC)) was 93 % of control. For the same compound, the T/C (dose: 50.0 mg/kg/injection, schedule: Q04DX003 (ip), vehicle: Klucel (hydroxypropylcellulose) (HPC)) was 88 % of control.
For `COc1cc2c(cc1OC)C1CNC(=O)C1C(c1ccccc1)C2` (stereo not drawn), the T/C (dose: 2.5 mg/kg/injection, schedule: Q01DX009 (ip), vehicle: Klucel (hydroxypropylcellulose) (HPC)) was 91 % of control, the T/C (dose: 3.75 mg/kg/injection, schedule: Q01DX009 (ip), vehicle: Klucel (hydroxypropylcellulose) (HPC)) was 91 % of control and the T/C (dose: 5.0 mg/kg/injection, schedule: Q01DX009 (ip), vehicle: Klucel (hydroxypropylcellulose) (HPC)) was 98 % of control. For the same compound, the T/C (dose: 7.5 mg/kg/injection, schedule: Q01DX009 (ip), vehicle: Klucel (hydroxypropylcellulose) (HPC)) was 97 % of control, the T/C (dose: 10.0 mg/kg/injection, schedule: Q01DX009 (ip), vehicle: Klucel (hydroxypropylcellulose) (HPC)) was 94 % of control and the T/C (dose: 15.0 mg/kg/injection, schedule: Q01DX009 (ip), vehicle: Klucel (hydroxypropylcellulose) (HPC)) was 92 % of control.
For `C1CC[N-]CC1.[Cl][Pt+2][Cl].[NH-]C1CC1`, the T/C (dose: 3.12 mg/kg/injection, schedule: Q01DX009 (ip), vehicle: water) was 105 % of control, the T/C (dose: 3.13 mg/kg/injection, schedule: Q01DX009 (ip), vehicle: water) was 151 % of control and the T/C (dose: 6.25 mg/kg/injection, schedule: Q01DX009 (ip), vehicle: water) was 152 % of control. For the same compound, the T/C (dose: 12.5 mg/kg/injection, schedule: Q01DX009 (ip), vehicle: water) was 119 % of control.
